Experimental data taken from patent publication US20140171431A1, “AZOLE HETEROCYCLIC COMPOUND, PREPARATION METHOD, PHARMACEUTICAL COMPOSITION AND USE” (priority 2011, published 2014).
Where two headings read alike, the source gives them in different places.

What was measured:
[1] = biological target: T1, Lp-PLA2 in rabbit serum (Oryctolagus cuniculus, UniProt G1SE06); assay: In vitro inhibitory activity towards the enzyme Lp-PLA2 in rabbit serum, [3H]PAF substrate; format: biochemical
T1 construct: from tissue; host or cells: rabbit serum
T1 sequence (G1SE06 22-423): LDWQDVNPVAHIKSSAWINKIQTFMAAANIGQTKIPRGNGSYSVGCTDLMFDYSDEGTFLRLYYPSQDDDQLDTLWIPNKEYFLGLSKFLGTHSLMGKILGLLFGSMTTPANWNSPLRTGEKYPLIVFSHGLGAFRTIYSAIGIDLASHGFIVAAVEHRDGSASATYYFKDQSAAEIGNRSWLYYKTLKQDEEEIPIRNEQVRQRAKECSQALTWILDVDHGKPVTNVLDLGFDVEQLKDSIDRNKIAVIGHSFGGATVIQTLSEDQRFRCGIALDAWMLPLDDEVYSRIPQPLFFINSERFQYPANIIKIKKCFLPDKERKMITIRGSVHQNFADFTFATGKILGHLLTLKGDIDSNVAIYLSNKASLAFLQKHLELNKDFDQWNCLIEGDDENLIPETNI

[2] = biological target: T2, Lp-PLA2 in human serum (Homo sapiens, UniProt Q13093); assay: In vitro inhibitory activity towards the enzyme Lp-PLA2 in human serum, [3H]PAF substrate; format: biochemical
T2 construct: from tissue
T2 sequence (Q13093 22-441): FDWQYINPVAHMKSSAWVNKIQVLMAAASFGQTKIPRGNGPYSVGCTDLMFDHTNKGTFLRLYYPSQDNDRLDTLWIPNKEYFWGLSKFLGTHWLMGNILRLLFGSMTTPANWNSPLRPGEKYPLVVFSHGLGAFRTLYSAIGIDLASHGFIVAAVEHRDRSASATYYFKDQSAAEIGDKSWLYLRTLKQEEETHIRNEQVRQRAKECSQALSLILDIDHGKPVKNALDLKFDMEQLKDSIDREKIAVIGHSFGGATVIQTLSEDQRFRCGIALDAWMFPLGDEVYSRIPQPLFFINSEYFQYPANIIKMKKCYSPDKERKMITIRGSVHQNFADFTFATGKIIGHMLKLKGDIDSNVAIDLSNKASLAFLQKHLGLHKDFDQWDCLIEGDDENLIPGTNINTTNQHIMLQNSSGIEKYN
Method: The activities of compounds were measured using [^3H] labeled platelet activating factor ([^3H]PAF, Perkinelmer, Lot NET910) as the substrate. The reaction was carried out in a system containing 50 mmol/l HEPES and 150 mmol/l NaCl (pH 7.4) in a total volume of 200 μl. First, 10 μL human plasma and 10 μl DMSO solution of the test compound were added to the system and preincubated for 10 min at 37° C. Then 20 nM [^3H]PAF was added as listed in table 1 to start the reaction and incubated for a further 10 min at 37° C. After that, 600 μl of CHCl3/MeOH (2:1) was added and the resulting mixture was mixed with vortex. After settled for a while, the mixture was centrifugated at 12000×g for 15 min. The supernatant was transferred to a new tube and 200 μl of CHCl3 was added and mixed by vortexing. The mixture was settled or centrifugated for 2 min. A 100 μl portion of the supernatant was then collected for radioactivity intensity measurement.

[3] = 100 nM, rabbit serum, read-out: inhibition, %
[4] = 10 nM, human serum, read-out: inhibition, %
[5] = 100 nM, read-out: inhibitory rate towards the rabbit serum derived Lp-PLA2 enzyme
[6] = 10 nM, read-out: inhibitory rate towards the human serum derived Lp-PLA2 enzyme

Row | Compound | inhibition at 0.1 µM [1, 3] | inhibition at 0.01 µM [2, 4] | inhibition at 0.1 µM ([2]; 100 nM, human serum) | inhibition at 1 µM ([1]; rabbit serum) | inhibition at 0.1 µM [1, 5] | inhibition at 0.01 µM [2, 6] | inhibition, % ([1]; 100 nM, rabbit serum, 0.1 µM) | inhibition, % ([2]; 10 nM, human serum, 0.01 µM) | inhibition, % ([2]; 100 nM, human serum, 0.1 µM)
1 | O=c1nc(SCc2ccc(F)cc2)n(Cc2nnc(CS(=O)(=O)Cc3ccccc3)n2Cc2ccc(-c3ccc(C(F)(F)F)cc3)cc2)c2c1CCC2 [Example 69, 1-((5-(benzylsulfonylmethyl)-4-((4′-(trifluoromethyl)biphenyl-4-yl)methyl)-4H-1,2,4-triazol-3-yl)methyl)-2-(4-fluorobenzylthio)-6,7-dihydro-1H-cyclopenta[d]pyrimidin-4(5H)-one] | 89% | 87% | 97% | – | – | – | – | – | –
2 | CC(=O)NCc1nnc(Cn2c(SCc3ccc(F)cc3)nc(=O)c3c2CCC3)n1Cc1ccc(-c2ccc(C(F)(F)F)cc2)cc1 [Example 110, N-((5-((2-(4-fluorobenzylthio)-4-oxo-4,5,6,7-tetrahydro-1H-cyclopenta[d]pyrimidin-1-yl)methyl)-4-((4′-(trifluoromethyl)biphenyl-4-yl)methyl)-4H-1,2,4-triazol-3-yl)methyl)acetamide] | 67% | 67% | 83% | – | – | – | – | – | –
3 | O=c1nc(SCc2ccc(F)cc2)n(Cc2nnc(C3CC3)n2Cc2ccc(-c3ccc(C(F)(F)F)cc3)cc2)c2c1CCC2 [Example 68, 1-((5-cyclopropyl-4-((4′-(trifluoromethyl)biphenyl-4-yl)methyl)-4H-1,2,4-triazol-3-yl)methyl)-2-(4-fluorobenzylthio)-6,7-dihydro-1H-cyclopenta[d]pyrimidin-4(5 H)-one] | 34% | 93% | 97% | 87% | – | – | – | – | –
4 | COC(=O)C(C)(C)N1CCN(Cc2nnc(Cn3c(SCc4ccc(F)cc4)nc(=O)c4c3CCC4)n2Cc2ccc(-c3ccc(C(F)(F)F)cc3)cc2)CC1 [Example 88, methyl-2-(4-((5-((2-(4-fluorobenzylthio)-4-oxo-4,5,6,7-tetrahydro-1H-cyclopenta[d]pyrimidin-1-yl)methyl)-4-((4′-(trifluoromethyl)biphenyl-4-yl)methyl)-4H-1,2,4-triazol-3-yl)methyl)piperazin-1-yl)-2-methylpropanoate] | 67% | 59% | 91% | – | – | – | – | – | –
5 | CN(Cc1nnc(Cn2c(SCc3ccc(F)cc3)nc(=O)c3c2CCC3)n1Cc1ccc(-c2ccc(C(F)(F)F)cc2)cc1)C1CC1 [Example 101, 1-((5-((cyclopropyl(methyl)amino)methyl)-4-((4′-(trifluoromethyl)biphenyl-4-yl)methyl)-4H-1,2,4-triazol-3-yl)methyl)-2-(4-fluorobenzylthio)-6,7-dihydro-1H-cyclopenta[d]pyrimidin-4(5H)-one] | 86% | 77% | 96% | – | – | – | – | – | –
6 | CC(NCCN(C)C)c1nnc(Cn2c(SCc3ccc(F)cc3)nc(=O)c3c2CCC3)n1Cc1ccc(-c2ccc(C(F)(F)F)cc2)cc1 (stereo not shown) [Example 128, 1-((5-(1-(2-(dimethylamino)ethylamino)ethyl)-4-((4′-(trifluoromethyl)biphenyl-4-yl)methyl)-4H-1,2,4-triazol-3-yl)methyl)-2-(4-fluorobenzylthio)-6,7-dihydro-1H-cyclopenta[d]pyrimidin-4(5H)-one] | 94% | 90% | – | – | > 90% | > 80% | – | – | –
7 | CCN(CC)CCOCc1nnc(Cn2c(SCc3ccc(F)cc3)nc(=O)c3c2CCC3)n1Cc1ccc(-c2ccc(C(F)(F)F)cc2)cc1 [Example 125, 1-((5-((2-(diethylamino)ethoxy)methyl)-4-((4′-(trifluoromethyl)biphenyl-4-yl)methyl)-4H-1,2,4-triazol-3-yl)methyl)-2-(4-fluorobenzylthio)-6,7-dihydro-1H-cyclopenta[d]pyrimidin-4(5H)-one] | 92% | 76% | – | – | – | – | – | – | –
8 | COC(=O)CN(C)Cc1nnc(Cn2c(SCc3ccc(F)cc3)nc(=O)c3c2CCC3)n1Cc1ccc(-c2ccc(C(F)(F)F)cc2)cc1 [Example 62, methyl 2-(((5-((2-(4-fluorobenzylthio)-4-oxo-4,5,6,7-tetrahydro-1H-cyclopenta[d]pyrimidin-1-yl)methyl)-4-((4′-(trifluoromethyl)biphenyl-4-yl)methyl)-4H-1,2,4-triazol-3-yl)methyl)(methyl)amino)acetate] | 81.9% | 83% | 96% | – | – | – | 73.8% | 76% | 94%
9 | O=c1nc(SCc2ccc(F)cc2)n(Cc2nnc(CSCc3ccc(F)cc3)n2Cc2ccc(-c3ccc(C(F)(F)F)cc3)cc2)c2c1CCC2 [Example 115, 2-(4-fluorobenzylthio)-1-((5-((4-fluorobenzylthio)methyl)-4-((4′-(trifluoromethyl)biphenyl-4-yl)methyl)-4H-1,2,4-triazol-3-yl)methyl)-6,7-dihydro-1H-cyclopenta[d]pyrimidin-4(5H)-one] | 78% | 77% | – | – | – | – | – | – | –
10 | O=C1NCCN1Cc1nnc(Cn2c(SCc3ccc(F)cc3)nc(=O)c3c2CCC3)n1Cc1ccc(-c2ccc(C(F)(F)F)cc2)cc1 [Example 112, 2-(4-fluorobenzylthio)-1-((5-((2-oxoimidazolidin-1-yl)methyl)-4-((4′-(trifluoromethyl)biphenyl-4-yl)methyl)-4H-1,2,4-triazol-3-yl)methyl)-6,7-dihydro-1H-cyclopenta[d]pyrimidin-4(5H)-one] | 63% | 56% | 87% | – | – | – | – | – | –
11 | O=c1nc(SCc2ccc(F)cc2)n(Cc2nnc(CN3CCC(F)(F)C3)n2Cc2ccc(-c3ccc(C(F)(F)F)cc3)cc2)c2c1CCC2 [Example 104, 1-((5-((3,3-difluoropyrrolidin-1-yl)methyl)-4-((4′-(trifluoromethyl)biphenyl-4-yl)methyl)-4H-1,2,4-triazol-3-yl)methyl)-2-(4-fluorobenzylthio)-6,7-dihydro-1H-cyclopenta[d]pyrimidin-4(5H)-one] | 67% | 53% | 86% | – | – | – | – | – | –
12 | C[N+](C)(Cc1ccc(F)cc1)Cc1cnc(Cn2c(SCc3ccc(F)cc3)nc(=O)c3c2CCC3)n1Cc1ccc(-c2ccc(C(F)(F)F)cc2)cc1 [Example 47, N-(4-fluorobenzyl)-1-(2-((2-(4-fluorobenzylthio)-4-oxo-4,5,6,7-tetrahydro-1H-cyclopenta[d]pyrimidin-1-yl)methyl)-1-((4′-(trifluoromethyl)biphenyl-4-yl)methyl)-1H-imidazol-5-yl)-N,N-dimethylmethanaminium bromide] | 96.9% | 93% | 99% | 98.6% | > 90% | > 80% | – | – | –
13 | CCS(=O)(=O)NCc1nnc(Cn2c(SCc3ccc(F)cc3)nc(=O)c3c2CCC3)n1Cc1ccc(-c2ccc(C(F)(F)F)cc2)cc1 [Example 111, N-((5-((2-(4-fluorobenzylthio)-4-oxo-4,5,6,7-tetrahydro-1H-cyclopenta[d]pyrimidin-1-yl)methyl)-4-((4′-(trifluoromethyl)biphenyl-4-yl)methyl)-4H-1,2,4-triazol-3-yl)methyl)ethanesulfonamide] | 75% | 68% | 92% | – | – | – | – | – | –
14 | CCN(CC)CCN(C)Cc1onc(Cn2c(SCc3ccc(F)cc3)nc(=O)c3c2CCC3)c1Cc1ccc(-c2ccc(C(F)(F)F)cc2)cc1 [Example 159, 1-((5-(((2-(diethylamino)ethyl)(methyl)amino)methyl)-4-((4′-(trifluoromethyl)biphenyl-4-yl)methyl)isoxazol-3-yl)methyl)-2-(4-fluorobenzylthio)-6,7-dihydro-1H-cyclopenta[d]pyrimidin-4(5H)-one] | 97% | 100% | – | – | > 90% | > 80% | – | – | –
